Assays:
Vasopressin V1A = target: T1, Vasopressin V1A (Homo sapiens, UniProt P37288); test: Safetyscreen: Vasopressin V1A; format: binding; settings: read-out: % Inh. Vasopressin V1A
T1 construct: purchased Eurofins Cereps Panlabs

Chemokine CCR1 = target: T2, Chemokine CCR1 (Homo sapiens, UniProt P32246); test: Safetyscreen: CCR1; format: binding; settings: read-out: % Inh. Chemokine CCR1
T2 construct: purchased Eurofins Cereps Panlabs

Adrenergic α1D = target: T3, Adrenergic α1D (Homo sapiens, UniProt P25100); test: Safetyscreen: Adrenergic α1D; format: binding; settings: read-out: % Inh. Adrenergic α1D
T3 construct: Eurofins Cerep Panlabs (contract panel)

Transporter, Adenosine = test: Safetyscreen: Adenosine transporter; format: binding, guinea pig; settings: 10 μM
Calcium Channel N-Type = target: T4, Calcium Channel N-Type (Rattus norvegicus, UniProt Q02294); test: Safetyscreen: Ca channel N-type; format: binding; settings: read-out: % Inh. Calcium Channel N-Type
T4 construct: purchased Eurofins Cereps Panlabs

Cyclooxygenase COX-2 = target: T5, Cyclooxygenase COX-2 (Homo sapiens, UniProt P35354); test: Safetyscreen: COX-2; format: biochemical; settings: read-out: % Inh. Cyclooxygenase COX-2
T5 construct: Eurofins Cerep Panlabs (contract panel)

[1] = system: ATPase, Na+/K+, Heart, Pig; test: Safetyscreen: ATPase, Na+/K+; format: biochemical; settings: 10 μM
Muscarinic M4 = target: T6, Muscarinic M4 (Homo sapiens, UniProt P08173); test: Safetyscreen: Muscarinic M4; format: binding; settings: read-out: % Inh. Muscarinic M4
T6 construct: Eurofins Cereps Panlabs (contract panel)

Hepa 1-6 tumors = Hepa 1-6 tumors in mice; format: in vivo, mouse; settings: Hepa 1-6 in C57BL6/J mice treated with anti-CD3; i.p., 20 mg/kg every day
Protocol: FIGS. 28A-28G: C99 inhibits murine RALDH1 and suppresses murine HCC growth. FIG. 28A: AldeRed assay was performed on Hepa1-6 (murine HCC, left graph) and SNU398 (human HCC, right graph) cells with or without different concentration of C99 (x-axis). Shown is the percentage of AldeRed-positive cells (y-axis) after 24 hours exposure to C99. Murine RALDH1 is sensitive to C99. FIG. 28B: Hepa1-6 cells were treated with different concentrations of C99 in vitro and the number of viable cells were counted at different time points. […] FIG. 28C: C57BL6/J mice were implanted subcutaneously with Hepa1-6 cells and the tumor-bearing mice. To prevent spontaneous rejection of this cell line, mice were treated with anti-CD3. Once the tumors reached around 50 mm^3 size, mice were treated with C86 or C99 (i.p., 20 mg/kg) every day. […] C99, but not C86, suppresses murine HCC growth. Two independent experiments were performed with at least three replicates per experimental group. Unpaired t test, two-tailed. FIG. 28D: Tumors in (FIG. 28C) were harvested at endpoint, single-cell suspension generated, and AldeRed assay was performed along with surface staining with immune cell markers. Shown is the percentage of AldeRed-positive cells in nonleukocytes (CD45 negative, mostly tumor cells) under the different treatment conditions. Two independent experiments were performed with at least three replicates per experimental group. Unpaired t test, two-tailed. FIG. 28E: FCS base frequency of Macrophages (F4/80^+ cells) within CD45^+ leukocytes in tumor tissues from experiment outlined in (FIGS. 28C-28D). Two independent experiments were performed with at least three replicates per experimental group. Unpaired t test, two-tailed. FIG. 28F: Hepa1-6 tumor-bearing NU/J mice were treated with chlodronate liposomes (CloLipo) and/or C86/C99. CloLipo treatment suppresses tumor growth and renders tumors insensitive to C99. Two independent experiments were performed with at least three replicates per experimental group. Unpaired t test, two-tailed. FIG. 28G: The murine fibrosarcoma (FS) cell line was implanted subcutaneously into C57BL6/J mice. Mice were treated with 25 mg/kg of C-99 or vehicle everyday starting one day after tumor cell transplantation. *, P<0.05; **, P<0.01; ***, P<0.001; ns, not significant.
Cultured Huh7, Huh1, Hepa 1-6, Hep55, and FS (as indicated in figure legends) tumor cells were detached using 0.25% trypsin (Gibco, catalog #25200056), washed once with 1×PBS, and counted before implantation. 3~6×10^6 tumor cells were implanted subcutaneously (s.c.) into shaved flanks of recipient mice. Tumor dimensions were measured using a caliper starting at the day indicated in the accompanying figure legend and every two to three days thereafter; volume was calculated by using formula Length*Width^2/2. Tumor volumes of 2,000 mm^3, tumor length of 2 cm or tumor ulceration were used as endpoints for survival analyses.
To deplete T cells, 200 μg of mouse CD3-specific antibody (clone 17A2) was administered i.p. starting three days before tumor implantation and repeated every three to four days until mouse sacrifice. To deplete macrophages, 200 μL of clodronate liposome (CloLipo) or PBS-liposome (CtrlLipo) (both Liposoma) was administered i.p. starting three days prior to tumor implantation and repeated every four days until mouse sacrifice. Macrophage depletion efficacy in spleen and within tumors was confirmed by flow cytometry using canonical macrophage marker F4/80. […]

SNU398 cells = test: RT-qPCR of Raldh1, Raldh2 and Raldh3 transcripts in SNU398 cells; format: cell-based, human; settings: SNU398, 24 hours
Protocol: FIG. 21A: Transcript levels (RT-qPCR) of Raldh1, Raldh2 and Raldh3 in SNU398 cells treated with different concentrations of C86 or C91 for 24 hours. FIG. 21B: Homology modeling identifies differences in amino acid residues between human and murine RALDH1 at sites predicted to bind RALDH1-INH. FIG. 21C: SNU398 cells were treated with various concentrations of C86 or C91 for 24 hours. Cell viability was measured by flow cytometry (FCM) with 7-AAD staining (Y-axis indicates percentage of 7-AAD negative cells).
Total RNA from mouse tissue samples and in vitro cultured cells was isolated using GenElute Mammalian Total RNA Miniprep Kit (Sigma) following the manufacturer's protocol. Total RNA from human FFPE samples was isolated by using Quick-RNA FFPE Miniprep Kit (Zymo Research) using the manufacturer's protocol. 1000 ng of RNA was used for reverse transcription using High Capacity RNA to cDNA Kit (Life Technologies). The cDNA product was 10× diluted. 2.5 μL of this cDNA was used for qPCR for each sample. Three or more replicates were used for each reaction. […] Expression fold was calculated as 2^−(CT target gene−CT housekeeping gene). Quantitative PCRs were run on a Viia 7 real time PCR system (ThermoFisher). The following target and housekeeping genes were measured using the commercially available TaqMan probes (ThermoFisher): […]

Neuropeptide Y Y1 = target: T7, Neuropeptide Y Y1 (Homo sapiens, UniProt P25929); test: Safetyscreen: Neuropeptide Y Y1; format: binding; settings: read-out: % Inh. Neuropeptide Y Y1
T7 construct: Eurofins Cereps Panlabs (contract panel)
T7 sequence (P25929 whole entry): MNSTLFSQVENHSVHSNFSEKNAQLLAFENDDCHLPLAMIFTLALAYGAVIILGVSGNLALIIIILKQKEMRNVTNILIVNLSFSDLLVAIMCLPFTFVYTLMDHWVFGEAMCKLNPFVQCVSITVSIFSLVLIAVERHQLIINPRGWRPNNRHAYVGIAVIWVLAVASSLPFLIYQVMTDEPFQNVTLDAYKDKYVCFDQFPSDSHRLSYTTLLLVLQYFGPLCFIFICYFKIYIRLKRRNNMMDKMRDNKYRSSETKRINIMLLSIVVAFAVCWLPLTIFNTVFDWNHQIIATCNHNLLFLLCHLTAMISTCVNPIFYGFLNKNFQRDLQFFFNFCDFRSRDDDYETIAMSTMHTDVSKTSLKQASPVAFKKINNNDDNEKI

T6 sequence (P08173 whole entry): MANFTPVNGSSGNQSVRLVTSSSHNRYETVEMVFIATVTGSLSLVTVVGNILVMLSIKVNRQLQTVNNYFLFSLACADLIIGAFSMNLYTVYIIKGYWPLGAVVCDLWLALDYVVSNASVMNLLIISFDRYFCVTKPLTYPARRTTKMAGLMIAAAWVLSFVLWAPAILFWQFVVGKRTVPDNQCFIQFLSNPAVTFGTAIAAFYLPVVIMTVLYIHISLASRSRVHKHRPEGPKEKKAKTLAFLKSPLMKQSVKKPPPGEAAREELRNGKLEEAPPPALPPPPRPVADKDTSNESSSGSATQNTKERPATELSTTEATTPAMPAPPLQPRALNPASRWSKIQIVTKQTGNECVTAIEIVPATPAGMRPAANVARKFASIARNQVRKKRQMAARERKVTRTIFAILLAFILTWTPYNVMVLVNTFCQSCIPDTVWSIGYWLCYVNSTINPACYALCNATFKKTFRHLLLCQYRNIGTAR
T4 sequence (Q02294 whole entry): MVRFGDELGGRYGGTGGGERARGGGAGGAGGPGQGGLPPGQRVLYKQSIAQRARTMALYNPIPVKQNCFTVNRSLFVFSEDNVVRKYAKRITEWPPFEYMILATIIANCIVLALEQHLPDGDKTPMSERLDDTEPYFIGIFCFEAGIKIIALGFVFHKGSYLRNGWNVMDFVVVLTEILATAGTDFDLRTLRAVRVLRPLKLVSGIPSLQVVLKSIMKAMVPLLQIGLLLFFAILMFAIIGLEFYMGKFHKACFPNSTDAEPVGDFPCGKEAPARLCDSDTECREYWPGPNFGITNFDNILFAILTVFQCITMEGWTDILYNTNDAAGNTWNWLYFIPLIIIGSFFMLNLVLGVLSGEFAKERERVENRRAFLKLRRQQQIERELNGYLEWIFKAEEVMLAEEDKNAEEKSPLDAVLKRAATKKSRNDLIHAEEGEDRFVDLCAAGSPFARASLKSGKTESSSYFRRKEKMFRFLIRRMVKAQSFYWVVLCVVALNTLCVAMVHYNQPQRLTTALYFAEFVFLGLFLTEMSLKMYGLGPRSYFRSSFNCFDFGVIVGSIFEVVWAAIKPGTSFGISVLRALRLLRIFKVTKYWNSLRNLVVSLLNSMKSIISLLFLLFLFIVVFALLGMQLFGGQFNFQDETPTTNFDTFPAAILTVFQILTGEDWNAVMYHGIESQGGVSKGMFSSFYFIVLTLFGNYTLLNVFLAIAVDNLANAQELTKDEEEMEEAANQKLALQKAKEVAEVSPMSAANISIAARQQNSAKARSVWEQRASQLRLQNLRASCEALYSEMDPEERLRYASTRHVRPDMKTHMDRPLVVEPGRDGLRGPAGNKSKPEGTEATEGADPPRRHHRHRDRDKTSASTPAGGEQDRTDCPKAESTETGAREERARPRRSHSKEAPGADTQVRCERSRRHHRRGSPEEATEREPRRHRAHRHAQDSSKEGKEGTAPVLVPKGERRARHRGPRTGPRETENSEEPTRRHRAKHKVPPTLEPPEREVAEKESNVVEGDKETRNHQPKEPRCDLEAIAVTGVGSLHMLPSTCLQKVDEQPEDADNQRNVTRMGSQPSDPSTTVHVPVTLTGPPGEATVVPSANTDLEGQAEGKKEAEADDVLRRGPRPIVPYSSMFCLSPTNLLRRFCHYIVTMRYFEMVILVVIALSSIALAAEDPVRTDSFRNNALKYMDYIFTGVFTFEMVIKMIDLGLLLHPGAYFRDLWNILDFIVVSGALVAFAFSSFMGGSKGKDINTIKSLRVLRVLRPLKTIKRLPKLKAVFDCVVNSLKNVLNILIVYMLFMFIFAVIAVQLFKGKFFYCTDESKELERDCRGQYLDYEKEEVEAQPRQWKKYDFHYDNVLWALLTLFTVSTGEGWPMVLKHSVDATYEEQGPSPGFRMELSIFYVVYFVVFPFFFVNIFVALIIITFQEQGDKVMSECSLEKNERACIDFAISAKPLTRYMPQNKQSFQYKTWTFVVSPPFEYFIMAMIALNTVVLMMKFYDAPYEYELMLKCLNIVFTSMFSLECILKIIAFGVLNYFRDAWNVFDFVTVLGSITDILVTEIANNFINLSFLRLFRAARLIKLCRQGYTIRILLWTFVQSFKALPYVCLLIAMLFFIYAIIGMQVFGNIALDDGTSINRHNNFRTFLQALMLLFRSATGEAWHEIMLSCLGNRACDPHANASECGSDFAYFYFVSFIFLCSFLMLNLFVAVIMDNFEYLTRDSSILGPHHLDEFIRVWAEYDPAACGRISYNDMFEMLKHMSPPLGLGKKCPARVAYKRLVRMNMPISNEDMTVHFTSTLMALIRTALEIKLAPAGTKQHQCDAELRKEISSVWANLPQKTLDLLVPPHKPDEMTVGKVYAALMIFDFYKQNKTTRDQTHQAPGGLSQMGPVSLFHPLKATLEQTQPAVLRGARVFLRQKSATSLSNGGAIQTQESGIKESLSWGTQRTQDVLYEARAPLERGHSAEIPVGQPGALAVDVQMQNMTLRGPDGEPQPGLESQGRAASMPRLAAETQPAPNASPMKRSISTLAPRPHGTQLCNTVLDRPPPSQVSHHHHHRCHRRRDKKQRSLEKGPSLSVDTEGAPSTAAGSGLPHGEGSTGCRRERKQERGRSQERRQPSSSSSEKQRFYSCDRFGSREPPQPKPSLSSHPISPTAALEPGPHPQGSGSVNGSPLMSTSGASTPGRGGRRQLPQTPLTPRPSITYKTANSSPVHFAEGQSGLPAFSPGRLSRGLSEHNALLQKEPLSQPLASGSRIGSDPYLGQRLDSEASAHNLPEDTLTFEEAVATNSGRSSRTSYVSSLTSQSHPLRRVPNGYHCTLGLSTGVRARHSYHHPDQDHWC
T2 sequence (P32246 whole entry): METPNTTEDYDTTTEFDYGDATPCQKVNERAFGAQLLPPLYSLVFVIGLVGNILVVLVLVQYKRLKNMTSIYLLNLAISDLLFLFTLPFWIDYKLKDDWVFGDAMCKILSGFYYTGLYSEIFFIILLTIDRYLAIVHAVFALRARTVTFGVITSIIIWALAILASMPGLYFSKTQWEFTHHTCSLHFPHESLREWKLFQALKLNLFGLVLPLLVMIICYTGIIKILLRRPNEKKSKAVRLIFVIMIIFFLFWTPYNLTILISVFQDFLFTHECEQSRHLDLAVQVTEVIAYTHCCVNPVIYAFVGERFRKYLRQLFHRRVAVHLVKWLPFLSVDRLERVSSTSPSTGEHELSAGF
T5 sequence (P35354 18-604): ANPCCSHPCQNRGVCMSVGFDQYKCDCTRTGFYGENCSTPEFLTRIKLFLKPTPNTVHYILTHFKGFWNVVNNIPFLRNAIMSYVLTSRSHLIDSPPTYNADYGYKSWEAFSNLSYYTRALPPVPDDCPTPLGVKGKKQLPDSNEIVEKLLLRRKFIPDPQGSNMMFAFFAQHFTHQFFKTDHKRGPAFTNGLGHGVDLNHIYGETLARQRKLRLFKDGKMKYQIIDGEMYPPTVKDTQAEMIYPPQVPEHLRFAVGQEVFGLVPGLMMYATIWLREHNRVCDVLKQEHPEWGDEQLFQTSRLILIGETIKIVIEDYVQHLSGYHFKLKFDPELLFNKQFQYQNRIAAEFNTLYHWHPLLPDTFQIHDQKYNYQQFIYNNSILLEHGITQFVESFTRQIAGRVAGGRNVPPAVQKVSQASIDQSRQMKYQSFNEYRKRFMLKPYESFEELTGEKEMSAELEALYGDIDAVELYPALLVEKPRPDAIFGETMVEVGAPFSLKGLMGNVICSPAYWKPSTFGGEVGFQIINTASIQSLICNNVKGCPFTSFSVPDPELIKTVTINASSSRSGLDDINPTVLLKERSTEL
T3 sequence (P25100 whole entry): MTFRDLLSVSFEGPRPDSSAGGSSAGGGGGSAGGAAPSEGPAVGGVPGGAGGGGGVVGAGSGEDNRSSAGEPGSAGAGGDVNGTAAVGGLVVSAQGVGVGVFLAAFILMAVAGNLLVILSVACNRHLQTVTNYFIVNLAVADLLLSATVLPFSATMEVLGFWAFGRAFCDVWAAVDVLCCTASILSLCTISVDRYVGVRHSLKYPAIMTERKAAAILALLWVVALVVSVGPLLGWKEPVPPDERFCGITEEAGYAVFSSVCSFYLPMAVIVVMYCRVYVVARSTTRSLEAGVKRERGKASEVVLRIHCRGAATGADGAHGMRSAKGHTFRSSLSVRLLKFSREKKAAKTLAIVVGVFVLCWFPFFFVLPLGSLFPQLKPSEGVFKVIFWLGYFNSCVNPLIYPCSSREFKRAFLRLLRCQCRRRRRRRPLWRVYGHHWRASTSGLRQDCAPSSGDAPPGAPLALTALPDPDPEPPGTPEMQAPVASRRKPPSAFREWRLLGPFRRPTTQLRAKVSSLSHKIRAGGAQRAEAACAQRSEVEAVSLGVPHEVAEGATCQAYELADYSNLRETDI

**Q.** What does the source list for `CS(=O)(=O)N1CCN(C(=O)c2cnc3ccc(F)cc3c2N2CCC(C#N)(c3ccccc3)CC2)CC1` [Compound C-86, 1-(6-fluoro-3-(4-(methylsulfonyl)piperazine-1-carbonyl)quinolin-4-yl)-4-phenylpiperidine-4-carbonitrile]?
**A.** inhibition at 10 µM (Vasopressin V1A): -13%; inhibition at 10 µM (Chemokine CCR1): 18%; inhibition at 10 µM (Adrenergic α1D): 6%; % Inh. Transporter, Adenosine (Transporter, Adenosine): 56%; inhibition at 10 µM (Calcium Channel N-Type): 6%; inhibition at 10 µM (Cyclooxygenase COX-2): 0%; % Inh. ATPase, Na+/K+, Heart, Pig [1]: 2%; inhibition at 10 µM (Muscarinic M4): 13%; tumor growth in vivo (Hepa 1-6 tumors): did not suppress; transcription of other RALDH isozymes (SNU398 cells): did not lead to compensatory increases in transcription; inhibition at 10 µM (Neuropeptide Y Y1): 11%
